Legend:
Type in all cases: biochemical
PI3Kβ = target: T1, PI3Kβ (Homo sapiens, UniProt P42338); experiment: In vitro test of enzyme activity (ADP-Glo lipokinase), PI3K beta; conditions: 40 μM ATP, 50 μM PIP2:3PS, 120 min
T1 construct: purchased Promega V1751
Description: (§1) 1. In Vitro Test of Enzyme Activity
(§2) The lipokinase reaction was carried out under the conditions of a suitable substrate and ATP, followed by two steps to detect the kinase activity with the ADP-Glo™ kit. The first step was terminating the kinase reaction, wherein the remaining ATP was completely removed and only ADP was left; the second step was adding kinase detection reagents to convert ADP to ATP, accompanied by luciferin/luciferase reaction. Finally, the output value of fluorescence value was converted into kinase activity.
(§3) Experimental materials and equipments:
(§4) 2. Kit: ADP-Glo™ Lipokinase and PIP2:3PS Kit (Promega # V1792)
(§5) The kit contains: 1 mM PIP2:3PS, 10× lipid dilution buffer, 1 M magnesium chloride, 10 mM ATP, 10 mM ADP, ADP-Glo reagent, detection buffer and detection substrate.
(§6) 3. Reaction plate: OptiPlate-384, white and transparent (PerkinElmer #6007299).
(§7) 1. 10× reaction buffer: 500 mM HEPES, pH 7.5, 500 mM NaCl, 9 mM MgCl2; BSA: 10% stock solution, homemade.
(§8) 2. Final test system conditions: 1× reaction system: 50 mM HEPES, 50 mM NaCl, 3 mM MgCl2, 0.01% BSA (freshly prepared on the day of the experiment), 1% DMSO (v/v)+/−compound
(§9) 3. Reaction system: 3 μL mixture of the enzyme and the substrate (1:1)+2 μL ATP/MgCl2 mixture+5 μL ADP-Glo reagent+10 μL detection reagent.
(§10) The detailed experimental procedures are as follows:
(§11) 1. Compound dilution: 50 nL 100×compound/DMSO was transferred to the test well plate with Echo. • For PI3Kα, the compound was diluted three-fold from the highest concentration of 0.111 mM for a total of 10 concentrations. • For PI3Kβ/PI3Kδ/PI3Kγ, the compound was three-fold diluted from the highest concentration of 1.11 mM for a total of 10 concentrations.
(§12) (1) The compound to be tested was prepared and 50 nL of 100 plus compound solution or DMSO was added to the corresponding well plate.
(§13) (2) 3.33 plate reaction buffer was prepared.
(§14) (3) 3.33 solution PIP2:3PS was prepared, PIP2:3PS was thawed for at least 1 minute before use.
(§15) (4) 2.5 mM containing 5.25 mM MgCl2 was prepared.
(§16) (5) 3.33 PI3Kα/PI3Kβ/PI3Kδ/PI3Kγ solution was prepared.
(§17) (6) The lipokinase solution and the PIP2:3PS solution were mixed in a volume ratio of 1:1.
(§18) (7) 3.33: lipokinase buffer and PIP2:3PS solution were mixed in a volume ratio of 1:1.
(§19) (8) 3 μL of buffer solution and PIP2:3PS were added to the first and the second columns of the well plate.
(§20) (9) 3 μL of the mixed solution of the enzyme and PIP2:3PS was added to the wells except the first and the second columns, centrifuged for 10 seconds (1000 rpm) and incubated at 23° C. for 20 minutes.
(§21) (10) 2 μL […] was added and well was shaken.
(§22) (11) The well plate was covered and shaken for about 30 s, then the well plate was incubated at 23° C. for 2 hours.
(§23) (12) 5 μL of ADP-Glo reagent containing 10 mM MgCl2 was added.
(§24) (13) The well plate was centrifuged at 1000 rpm for 10 seconds, and the well plate was then covered, shaken for about 30 seconds, and incubated at 23° C. for 60 minutes.
(§25) (14) 10 μL kinase detection reagent was added.
(§26) (15) The well plate was centrifuged at 1000 rpm for 10 seconds, and then incubated at 23° C. for 60 minutes.
(§27) (16) The fluorescence value was measured on the Envision instrument.

PI3Kα = target: T2, PI3Kα (Homo sapiens, UniProt P42336); experiment: In vitro test of enzyme activity (ADP-Glo lipokinase), PI3K alpha; conditions: 40 μM ATP, 50 μM PIP2:3PS, 120 min
T2 construct: purchased Millipore 14-602-K
T2 sequence (P42336 whole entry): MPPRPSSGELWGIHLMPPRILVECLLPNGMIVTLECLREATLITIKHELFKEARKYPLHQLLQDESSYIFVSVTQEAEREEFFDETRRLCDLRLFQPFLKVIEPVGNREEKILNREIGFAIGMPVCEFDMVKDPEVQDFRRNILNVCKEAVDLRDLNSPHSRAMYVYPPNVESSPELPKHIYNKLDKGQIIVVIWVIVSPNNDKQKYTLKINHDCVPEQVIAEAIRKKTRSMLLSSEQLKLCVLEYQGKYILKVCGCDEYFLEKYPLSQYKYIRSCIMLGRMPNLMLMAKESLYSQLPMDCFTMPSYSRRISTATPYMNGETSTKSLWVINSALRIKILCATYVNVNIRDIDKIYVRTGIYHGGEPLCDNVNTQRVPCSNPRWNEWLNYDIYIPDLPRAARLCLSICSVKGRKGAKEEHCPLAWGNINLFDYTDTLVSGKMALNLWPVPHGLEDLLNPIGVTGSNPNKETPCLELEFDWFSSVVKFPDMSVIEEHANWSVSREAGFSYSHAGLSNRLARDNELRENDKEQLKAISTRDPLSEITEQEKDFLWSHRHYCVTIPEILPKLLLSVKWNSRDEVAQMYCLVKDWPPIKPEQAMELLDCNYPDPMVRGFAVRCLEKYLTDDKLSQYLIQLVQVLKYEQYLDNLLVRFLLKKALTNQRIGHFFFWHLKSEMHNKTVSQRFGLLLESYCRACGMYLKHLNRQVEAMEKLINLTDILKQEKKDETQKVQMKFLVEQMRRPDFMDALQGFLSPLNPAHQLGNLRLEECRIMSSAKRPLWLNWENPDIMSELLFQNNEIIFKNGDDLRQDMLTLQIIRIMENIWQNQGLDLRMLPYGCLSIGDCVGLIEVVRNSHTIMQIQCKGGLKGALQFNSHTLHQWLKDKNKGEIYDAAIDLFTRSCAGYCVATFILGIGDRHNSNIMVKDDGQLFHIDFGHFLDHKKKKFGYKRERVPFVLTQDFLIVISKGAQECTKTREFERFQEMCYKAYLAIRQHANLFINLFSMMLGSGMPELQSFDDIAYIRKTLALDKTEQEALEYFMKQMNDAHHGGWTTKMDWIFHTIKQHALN
T2 sequence (P27986 whole entry partner): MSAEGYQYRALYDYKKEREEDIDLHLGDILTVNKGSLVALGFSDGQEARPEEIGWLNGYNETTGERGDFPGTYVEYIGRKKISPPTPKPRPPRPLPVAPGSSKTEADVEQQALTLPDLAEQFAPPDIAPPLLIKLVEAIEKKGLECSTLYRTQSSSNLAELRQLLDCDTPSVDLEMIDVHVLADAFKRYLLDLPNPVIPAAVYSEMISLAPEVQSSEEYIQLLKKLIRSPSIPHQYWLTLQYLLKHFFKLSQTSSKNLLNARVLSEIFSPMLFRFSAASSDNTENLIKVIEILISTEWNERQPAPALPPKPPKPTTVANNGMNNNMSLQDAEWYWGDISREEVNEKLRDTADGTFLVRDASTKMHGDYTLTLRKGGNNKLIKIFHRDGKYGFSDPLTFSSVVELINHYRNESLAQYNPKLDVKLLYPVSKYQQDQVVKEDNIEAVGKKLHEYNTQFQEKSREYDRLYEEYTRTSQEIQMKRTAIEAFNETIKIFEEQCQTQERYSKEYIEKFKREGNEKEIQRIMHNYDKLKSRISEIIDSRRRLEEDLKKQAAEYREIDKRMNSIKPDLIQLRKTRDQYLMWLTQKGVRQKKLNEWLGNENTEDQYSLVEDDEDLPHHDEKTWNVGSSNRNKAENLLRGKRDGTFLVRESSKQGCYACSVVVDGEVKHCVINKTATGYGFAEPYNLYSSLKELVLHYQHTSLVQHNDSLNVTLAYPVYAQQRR
Description: as §1, §2, §3, §4, §5, §6, §7, §8, §9, §10, §11, §12, §13, §14, §15, §16, §17, §18, §19, §20, §21, §22, §23, §24, §25, §26, §27

PI3Kγ = target: T3, PI3Kγ (Homo sapiens, UniProt P48736); experiment: In vitro test of enzyme activity (ADP-Glo lipokinase), PI3K gamma; conditions: 25 μM ATP, 50 μM PIP2:3PS, 120 min
T3 construct: purchased Millipore 14-558-K
T3 sequence (P48736 whole entry): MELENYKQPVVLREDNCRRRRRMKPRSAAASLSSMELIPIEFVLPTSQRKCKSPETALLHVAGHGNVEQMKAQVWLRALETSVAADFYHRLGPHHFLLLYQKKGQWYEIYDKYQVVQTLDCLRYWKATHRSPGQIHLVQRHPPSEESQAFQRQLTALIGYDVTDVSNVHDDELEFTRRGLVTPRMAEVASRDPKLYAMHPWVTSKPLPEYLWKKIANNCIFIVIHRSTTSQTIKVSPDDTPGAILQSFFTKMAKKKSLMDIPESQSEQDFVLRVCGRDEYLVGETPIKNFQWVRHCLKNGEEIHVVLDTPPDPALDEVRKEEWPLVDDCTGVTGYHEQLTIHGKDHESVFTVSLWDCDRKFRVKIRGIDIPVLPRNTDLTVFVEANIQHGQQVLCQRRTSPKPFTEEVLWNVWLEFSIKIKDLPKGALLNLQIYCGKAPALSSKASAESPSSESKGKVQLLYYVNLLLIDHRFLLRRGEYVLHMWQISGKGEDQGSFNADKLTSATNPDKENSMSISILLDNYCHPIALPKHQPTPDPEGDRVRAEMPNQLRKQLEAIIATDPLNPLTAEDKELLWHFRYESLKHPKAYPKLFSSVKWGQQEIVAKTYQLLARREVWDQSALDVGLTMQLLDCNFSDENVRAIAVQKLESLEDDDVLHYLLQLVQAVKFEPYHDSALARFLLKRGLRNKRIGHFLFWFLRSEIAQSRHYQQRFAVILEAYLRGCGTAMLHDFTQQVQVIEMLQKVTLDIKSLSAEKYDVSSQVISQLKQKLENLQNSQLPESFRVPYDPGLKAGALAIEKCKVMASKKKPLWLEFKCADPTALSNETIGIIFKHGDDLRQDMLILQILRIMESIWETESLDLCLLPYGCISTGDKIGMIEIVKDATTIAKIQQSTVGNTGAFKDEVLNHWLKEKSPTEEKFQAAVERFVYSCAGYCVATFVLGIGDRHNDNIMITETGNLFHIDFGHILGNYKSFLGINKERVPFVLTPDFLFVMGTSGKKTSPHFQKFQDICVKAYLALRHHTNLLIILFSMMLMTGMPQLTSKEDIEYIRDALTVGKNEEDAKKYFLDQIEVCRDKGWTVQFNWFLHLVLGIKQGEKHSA
Description: as §1, §2, §3, §4, §5, §6, §7, §8, §9, §10, §11, §12, §13, §14, §15, §16, §17, §18, §19, §20, §21, §22, §23, §24, §25, §26, §27

PI3Kδ = target: T4, PI3Kδ (Homo sapiens, UniProt O00329); experiment: In vitro test of enzyme activity (ADP-Glo lipokinase), PI3K delta; conditions: 40 μM ATP, 50 μM PIP2:3PS, 120 min
T4 construct: purchased Millipore 14-604-K
T4 sequence (O00329 whole entry): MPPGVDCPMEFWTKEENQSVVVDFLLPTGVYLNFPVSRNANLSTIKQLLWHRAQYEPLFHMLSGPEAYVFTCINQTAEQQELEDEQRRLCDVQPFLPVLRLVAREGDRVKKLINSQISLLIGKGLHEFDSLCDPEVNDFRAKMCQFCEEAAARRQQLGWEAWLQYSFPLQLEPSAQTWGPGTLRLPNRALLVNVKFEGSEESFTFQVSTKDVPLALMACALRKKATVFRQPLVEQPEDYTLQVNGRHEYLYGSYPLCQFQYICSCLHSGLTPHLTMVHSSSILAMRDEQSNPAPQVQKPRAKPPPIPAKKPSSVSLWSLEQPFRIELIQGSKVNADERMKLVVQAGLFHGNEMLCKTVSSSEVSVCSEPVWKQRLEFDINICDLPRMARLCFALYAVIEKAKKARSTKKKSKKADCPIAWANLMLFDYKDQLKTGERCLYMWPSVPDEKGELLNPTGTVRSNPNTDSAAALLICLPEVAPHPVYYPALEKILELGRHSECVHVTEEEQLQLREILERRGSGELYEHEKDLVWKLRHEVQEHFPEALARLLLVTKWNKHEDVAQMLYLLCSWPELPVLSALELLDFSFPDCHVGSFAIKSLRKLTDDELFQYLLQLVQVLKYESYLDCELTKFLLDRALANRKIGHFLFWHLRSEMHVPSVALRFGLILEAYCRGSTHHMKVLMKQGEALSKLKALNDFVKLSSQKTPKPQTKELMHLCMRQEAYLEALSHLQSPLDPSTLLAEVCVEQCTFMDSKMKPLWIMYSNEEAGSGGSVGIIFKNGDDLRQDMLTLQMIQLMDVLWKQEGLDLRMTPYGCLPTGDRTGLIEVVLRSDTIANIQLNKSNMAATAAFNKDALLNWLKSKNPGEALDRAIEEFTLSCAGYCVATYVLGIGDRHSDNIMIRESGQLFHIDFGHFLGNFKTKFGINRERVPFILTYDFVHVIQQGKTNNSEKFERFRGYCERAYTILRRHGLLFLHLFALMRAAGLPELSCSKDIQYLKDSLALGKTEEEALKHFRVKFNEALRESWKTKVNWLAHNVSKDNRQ
T4 sequence (P27986 whole entry partner): as the sequence (P27986 whole entry partner) above
Description: as §1, §2, §3, §4, §5, §6, §7, §8, §9, §10, §11, §12, §13, §14, §15, §16, §17, §18, §19, §20, §21, §22, §23, §24, §25, §26, §27

T1 sequence (P42338 whole entry): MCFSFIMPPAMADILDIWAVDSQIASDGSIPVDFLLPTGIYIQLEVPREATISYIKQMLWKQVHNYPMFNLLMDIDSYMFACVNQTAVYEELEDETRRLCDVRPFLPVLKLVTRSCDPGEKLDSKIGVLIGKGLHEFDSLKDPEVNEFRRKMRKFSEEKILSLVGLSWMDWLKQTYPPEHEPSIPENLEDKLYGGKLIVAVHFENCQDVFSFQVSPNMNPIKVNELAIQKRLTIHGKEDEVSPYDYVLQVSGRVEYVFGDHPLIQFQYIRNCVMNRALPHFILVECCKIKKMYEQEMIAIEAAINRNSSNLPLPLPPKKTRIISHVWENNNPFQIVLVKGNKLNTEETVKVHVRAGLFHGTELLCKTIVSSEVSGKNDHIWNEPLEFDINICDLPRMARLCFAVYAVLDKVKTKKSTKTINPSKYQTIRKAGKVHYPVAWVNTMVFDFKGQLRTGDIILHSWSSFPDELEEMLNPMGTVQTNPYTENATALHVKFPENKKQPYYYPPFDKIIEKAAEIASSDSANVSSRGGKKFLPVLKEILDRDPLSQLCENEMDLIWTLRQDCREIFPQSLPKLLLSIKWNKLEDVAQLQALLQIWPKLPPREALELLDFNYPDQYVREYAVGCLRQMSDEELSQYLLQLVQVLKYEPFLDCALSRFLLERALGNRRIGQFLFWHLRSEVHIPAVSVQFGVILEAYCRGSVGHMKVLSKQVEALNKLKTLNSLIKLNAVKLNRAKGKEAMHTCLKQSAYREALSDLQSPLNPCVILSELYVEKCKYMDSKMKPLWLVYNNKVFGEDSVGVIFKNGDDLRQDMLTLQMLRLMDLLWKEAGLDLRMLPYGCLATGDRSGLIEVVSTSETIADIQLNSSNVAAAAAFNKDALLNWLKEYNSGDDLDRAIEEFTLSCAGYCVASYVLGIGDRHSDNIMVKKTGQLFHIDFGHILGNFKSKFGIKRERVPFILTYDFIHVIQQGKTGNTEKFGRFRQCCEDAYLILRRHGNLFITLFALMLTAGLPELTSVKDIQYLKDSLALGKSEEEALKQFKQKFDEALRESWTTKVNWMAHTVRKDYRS
T1 sequence (P27986 whole entry partner): as the sequence (P27986 whole entry partner) above

SMILES	IC50 (PI3Kβ)	IC50 (PI3Kα)	IC50 (PI3Kγ)	IC50 (PI3Kδ)
COC(=O)C(C)Cn1cnc2ccc(-c3cnc(OC)c(NS(=O)(=O)c4ccc(F)cc4Cl)c3)cc2c1=O (single isomer, unassigned) [R005, reference compound]	100 nM	5.84 nM	–	–
CNC(=O)C(C)Cn1cnc2ccc(-c3cnc(C)c(NS(=O)(=O)c4sc(C)nc4C)c3)cc2c1=O (single isomer, unassigned) [WX034]	554 nM	0.71 nM	29.9 nM	11.6 nM
CNC(=O)C(C)Cn1cnc2ccc(-c3cnc(OC)c(NS(=O)(=O)c4ccc(F)cc4)c3)cc2c1=O (single isomer, unassigned) [WX088]	211 nM	8 nM	–	–
CNC(=O)C(C)Cn1cnc2ccc(-c3cnc(OC)c(NS(=O)(=O)c4ccc(C)cc4C)c3)cc2c1=O (single isomer, unassigned) [WX092]	250 nM	6.47 nM	–	–
CNC(=O)C(C)Cn1cnc2ccc(-c3cnc(OC)c(NS(=O)(=O)c4cc(Cl)c(F)cc4F)c3)cc2c1=O (single isomer, unassigned) [WX096]	175 nM	8.51 nM	–	–
CNC(=O)C(C)Cn1cnc2ccc(-c3cnc(OC)c(NS(=O)(=O)c4cc(C(F)(F)F)cc(C(F)(F)F)c4)c3)cc2c1=O (single isomer, unassigned) [WX104]	1950 nM	38.5 nM	–	–
CNC(=O)C(C)Cn1cnc2ccc(-c3cnc(OC)c(NS(=O)(=O)c4ccc(F)c(C#N)c4)c3)cc2c1=O (single isomer, unassigned) [WX156]	498 nM	3.56 nM	–	–
CNC(=O)C(C)Cn1cnc2ccc(-c3cnc(OC)c(NS(=O)(=O)c4ccc(F)c(C#N)c4)c3)cc2c1=O (single isomer, unassigned) [WX157]	287 nM	5.81 nM	–	–
CNC(=O)C(C)Cn1cnc2ccc(-c3cnc(OC)c(NS(=O)(=O)c4ccc(C)c(Cl)c4)c3)cc2c1=O (single isomer, unassigned) [WX160]	2100 nM	11.2 nM	–	–
CNC(=O)C(C)Cn1cnc2ccc(-c3cnc(OC)c(NS(=O)(=O)c4ccc(C)c(Cl)c4)c3)cc2c1=O (single isomer, unassigned) [WX161]	153 nM	8.92 nM	–	–
CNC(=O)C(C)Cn1cnc2ccc(-c3cnc(OC)c(NS(=O)(=O)c4ccc(F)c(Cl)c4)c3)cc2c1=O (single isomer, unassigned) [WX166]	222 nM	5.78 nM	–	–
CNC(=O)C(C)Cn1cnc2ccc(-c3cnc(OC)c(NS(=O)(=O)c4ccc(F)c(Cl)c4)c3)cc2c1=O (single isomer, unassigned) [WX167]	159 nM	13 nM	–	–
CNC(=O)C(C)Cn1cnc2ccc(-c3cnc(OC)c(NS(=O)(=O)c4ccc(F)cc4C)c3)cc2c1=O (single isomer, unassigned) [WX180]	411 nM	10.2 nM	–	–
CNC(=O)C(C)Cn1cnc2ccc(-c3cnc(OC)c(NS(=O)(=O)c4cc(C)cc(F)c4)c3)cc2c1=O (single isomer, unassigned) [WX187]	331 nM	4.84 nM	–	–
CNC(=O)C(C)Cn1cnc2ccc(-c3cnc(OC)c(NS(=O)(=O)c4cc(F)cc(F)c4)c3)cc2c1=O (single isomer, unassigned) [WX193]	451 nM	12.6 nM	–	–
CNC(=O)C(C)Cn1cnc2ccc(-c3cnc(OC)c(NS(=O)(=O)c4ccc(F)cc4C(F)(F)F)c3)cc2c1=O (single isomer, unassigned) [WX195]	327 nM	5.58 nM	–	–
CNC(=O)C(C)Cn1cnc2ccc(-c3cnc(OC)c(NS(=O)(=O)c4ccc(OC)cc4)c3)cc2c1=O (single isomer, unassigned) [WX204]	527 nM	22.5 nM	–	–
CNC(=O)C(C)Cn1cnc2ccc(-c3cnc(OC)c(NS(=O)(=O)c4c(Cl)cccc4Cl)c3)cc2c1=O (single isomer, unassigned) [WX208]	119 nM	2.49 nM	–	–
CNC(=O)C(C)Cn1cnc2ccc(-c3cnc(OC)c(NS(=O)(=O)c4sccc4C)c3)cc2c1=O (single isomer, unassigned) [WX209]	176 nM	4.08 nM	–	–

SMILES	IC50 (PI3Kβ)	IC50 (PI3Kα)	IC50 (PI3Kγ)	IC50 (PI3Kδ)
CNC(=O)C(C)Cn1cnc2ccc(-c3cnc(OC)c(NS(=O)(=O)c4cc(C)ccc4Cl)c3)cc2c1=O (single isomer, unassigned) [WX213]	201 nM	4.52 nM	–	–
CNC(=O)C(C)Cn1cnc2ccc(-c3cnc(OC)c(NS(=O)(=O)c4ccc(Cl)cc4C)c3)cc2c1=O (single isomer, unassigned) [WX217]	269 nM	3.47 nM	–	–
CNC(=O)C(C)Cn1cnc2ccc(-c3cnc(OC)c(NS(=O)(=O)c4ccc(Cl)cc4C)c3)cc2c1=O (single isomer, unassigned) [WX218]	216 nM	5.04 nM	–	–
CNC(=O)C(C)Cn1cnc2ccc(-c3cnc(OC)c(NS(=O)(=O)c4cccc(C)c4F)c3)cc2c1=O (single isomer, unassigned) [WX219]	276 nM	5.36 nM	–	–
CNC(=O)C(C)Cn1cnc2ccc(-c3cnc(OC)c(NS(=O)(=O)c4cccc(C)c4F)c3)cc2c1=O (single isomer, unassigned) [WX220]	139 nM	10.1 nM	–	–
CNC(=O)C(C)Cn1cnc2ccc(-c3cnc(OC)c(NS(=O)(=O)c4cc(Cl)ccc4C)c3)cc2c1=O (single isomer, unassigned) [WX221]	162 nM	4.61 nM	–	–
CCOC(=O)CCCn1cnc2ccc(-c3cnc(OC)c(NS(=O)(=O)c4ccc(F)cc4Cl)c3)cc2c1=O [R001, reference compound]	100 nM	3.77 nM	–	–
CNC[C@@H](C)Cn1cnc2ccc(-c3cnc(OC)c(NS(=O)(=O)c4ccc(F)cc4Cl)c3)cc2c1=O [R008, reference compound]	121 nM	12 nM	–	–
CNC[C@H](C)Cn1cnc2ccc(-c3cnc(OC)c(NS(=O)(=O)c4ccc(F)cc4Cl)c3)cc2c1=O [R009, reference compound]	108 nM	10.4 nM	–	–
COc1ncc(-c2ccc3ncn(CC(C)(C)C(N)=O)c(=O)c3c2)cc1NS(=O)(=O)c1ccc(F)cc1Cl [WX020]	413 nM	10.2 nM	–	–
CNC(=O)C(C)Cn1cnc2ccc(-c3cnc(C(F)(F)F)c(NS(=O)(=O)c4ccc(F)cc4Cl)c3)cc2c1=O (stereo not drawn) [WX084]	110 nM	0.56 nM	–	–
CNC(=O)[C@H](C)Cn1cnc2ccc(-c3cnc(OC)c(NS(=O)(=O)c4cc(Cl)ccc4Cl)c3)cc2c1=O [WX182]	73.3 nM	1.47 nM	–	–
CNC(=O)[C@@H](C)Cn1cnc2ccc(-c3cnc(OC)c(NS(=O)(=O)c4cc(C)cc(Cl)c4)c3)cc2c1=O [WX184]	192 nM	8.14 nM	–	–
CNC(=O)[C@H](C)Cn1cnc2ccc(-c3cnc(OC)c(NS(=O)(=O)c4cccc(C)c4Cl)c3)cc2c1=O [WX188]	152 nM	2.98 nM	–	–
CNC(=O)[C@H](C)Cn1cnc2ccc(-c3cnc(OC)c(NS(=O)(=O)c4ccc(Cl)c(C)c4)c3)cc2c1=O [WX190]	205 nM	13.2 nM	–	–
COc1ncc(-c2ccc3ncn(CCCC(=O)N4CCCC4)c(=O)c3c2)cc1NS(=O)(=O)c1ccc(F)cc1Cl [WX199]	199 nM	4.86 nM	–	–
CNC(=O)[C@H](C)Cn1cnc2ccc(-c3cnc(OC)c(NS(=O)(=O)c4ccc(OC)cc4)c3)cc2c1=O [WX203]	595 nM	12.8 nM	–	–
CNC(=O)[C@@H](C)Cn1cnc2ccc(-c3cnc(OC)c(NS(=O)(=O)c4ccccc4F)c3)cc2c1=O [WX205]	97.3 nM	3.7 nM	–	–
CNC(=O)[C@@H](C)Cn1cnc2ccc(-c3cnc(OC)c(NS(=O)(=O)c4c(Cl)cccc4Cl)c3)cc2c1=O [WX207]	20.5 nM	0.85 nM	–	–
